# Measured values: US20230101273A1, “MESOIONIC INSECTICIDES” (FMC Corporation, priority 2020, published 2023)
# Where a name gives a salt, the structure may show the parent alone.
# Assays:
# [1] = system: corn planthopper (Peregrinus maidis (Ashmead)); assay: Test C: control of corn planthopper through contact and/or systemic means; type: in vivo; details: 144 h, sprayed at 50 ppm, 6 days, nymphs on corn plant
# Method: (§1) Test compounds were formulated using a solution containing 10% acetone, 90% water and 300 ppm Activator 900 non-ionic surfactant (Loveland Products, Loveland, Colo., USA). The formulated compounds were applied in 1 mL of liquid through an atomizer nozzle positioned 1.27 cm (0.5 inches) above the top of each test unit. Test compounds were sprayed at the rates indicated, and each test was replicated three times.
# For evaluating control of corn planthopper (Peregrinus maidis (Ashmead)) through contact and/or systemic means, the test unit consisted of a small open container with a 3-4-day-old corn (maize) plant inside. White sand was added to the top of the soil prior to application of the test compound.
# (§2) Test compounds were formulated and sprayed at 50 ppm. After spraying of the formulated test compound, the test units were allowed to dry for 1 h before they were post-infested with ˜15-20 nymphs (18-to-21-day-old). A black, screened cap was placed on the top of each test unit, and the test units were held for 6 days in a growth chamber at 22-24° C. and 50-70% relative humidity. Each test unit was then visually assessed for insect mortality.
# [2] = system: cotton melon aphid (Aphis gossypii (Glover)); assay: Test F: control of cotton melon aphid through contact and/or systemic means; type: in vivo; details: 144 h, sprayed at 50 ppm, 6 days, okra plant
# Method: as §1
# […] This was pre-infested with 30-40 insects on a piece of leaf according to the cut-leaf method, and the soil of the test unit was covered with a layer of sand.
# Test compounds were formulated and sprayed at 50 ppm. After spraying, the test units were maintained in a growth chamber for 6 days at 19° C. and 70% relative humidity. Each test unit was then visually assessed for insect mortality.
# [3] = system: green peach aphid (Myzus persicae (Sulzer)); assay: Test E: control of green peach aphid through contact and/or systemic means; type: in vivo; details: 144 h, sprayed at 50 ppm, 6 days, radish plant
# Method: as §1
# For evaluating control of green peach aphid (Myzus persicae (Sulzer)) through contact and/or systemic means, the test unit consisted of a small open container with a 12-15-day-old radish plant inside. This was pre-infested by placing on a leaf of the test plant 30-40 aphids on a piece of leaf excised from a culture plant (cut-leaf method). The aphids moved onto the test plant as the leaf piece desiccated. After pre-infestation, the soil of the test unit was covered with a layer of sand.
# Test compounds were formulated and sprayed at 50 ppm. After spraying of the formulated test compound, each test unit was allowed to dry for 1 hour and then a black, screened cap was placed on top. The test units were held for 6 days in a growth chamber at 19-21° C. and 50-70% relative humidity. Each test unit was then visually assessed for insect mortality.
# [4] = system: potato leafhopper (Empoasca fabae (Harris)); assay: Test D: control of potato leafhopper through contact and/or systemic means; type: in vivo; details: 144 h, sprayed at 50 ppm, 6 days, adults on Soleil bean plant
# Method: as §1
# For evaluating control of potato leafhopper (Empoasca fabae (Harris)) through contact and/or systemic means, the test unit consisted of a small open container with a 5-6-day-old Soleil bean plant (primary leaves emerged) inside. White sand was added to the top of the soil, and one of the primary leaves was excised prior to application of the test compound.
# as §2, with “1 hour” for “1 h”, “with 5 potato leafhoppers (18-to-21-day-old adults).” for “with ˜15-20 nymphs (18-to-21-day-old).”, “of the” for “of each”, “at 20°” for “at 22-24°”, “and 70%” for “and 50-70%”
melting point [°C],Compound,mortality at 50 ppm [1] [%],mortality at 50 ppm [2] [%],mortality at 50 ppm [3] [%],mortality at 50 ppm [4] [%]
90 to 97,"CCOc1cc(C#CC(C)C)cc(-c2c([O-])[n+](Cc3cnc(Cl)s3)c3c(C)cccn3c2=O)c1 (as salt: salt) [Compound 54, 1-[(2-chloro-5-thiazolyl)methyl]-3-[3-ethoxy-5-(3-methyl-1-butyn-1-yl)phenyl]-2-hydroxy-9-methyl-4-oxo-4H-pyrido[1,2-a]pyrimidinium inner salt]",,,,
,"CCC#Cc1cc(Cl)cc(-c2c([O-])[n+](Cc3cnc(Cl)s3)c3c(C)cccn3c2=O)c1 [Compound 1, 3-[3-(1-butyn-1-yl)-5-chlorophenyl]-1-[(2-chloro-5-thiazolyl)methyl]-2-hydroxy-9-methyl-4-oxo-4H-pyrido[1,2-a]pyrimidinium inner salt]",≥ 80,≥ 80,≥ 80,
,"CCC#Cc1cccc(-c2c([O-])[n+](Cc3cnc(Cl)s3)c3c(C)cccn3c2=O)c1 [Compound 2, 3-[3-(1-butyn-1-yl)phenyl]-1-[(2-chloro-5-thiazolyl)methyl]-2-hydroxy-9-methyl-4-oxo-4H-pyrido[1,2-a]pyrimidinium inner salt]",≥ 80,≥ 80,≥ 80,
,"COc1cc(C#CC2CC2)cc(-c2c([O-])[n+](Cc3cnc(Cl)s3)c3c(C)cccn3c2=O)c1 [Compound 4, 1-[(2-chloro-5-thiazolyl)methyl]-3-[3-(2-cyclopropylethynyl)-5-methoxyphenyl]-2-hydroxy-9-methyl-4-oxo-4H-pyrido[1,2-a]pyrimidinium inner salt]",≥ 80,≥ 80,≥ 80,≥ 80
,"Cc1cc(C#CC(C)C)cc(-c2c([O-])[n+](Cc3cnc(Cl)s3)c3c(C)cccn3c2=O)c1 [Compound 7, 1-[(2-chloro-5-thiazolyl)methyl]-2-hydroxy-9-methyl-3-[3-methyl-5-(3-methyl-1-butyn-1-yl)phenyl]-4-oxo-4H-pyrido[1,2-a]pyrimidinium inner salt]",≥ 80,≥ 80,≥ 80,≥ 80
,"Cc1cc(C#CC2CC2)cc(-c2c([O-])[n+](Cc3cnc(Cl)s3)c3c(C)cccn3c2=O)c1 [Compound 11, 1-[(2-chloro-5-thiazolyl)methyl]-3-[3-(2-cyclopropylethynyl)-5-methylphenyl]-2-hydroxy-9-methyl-4-oxo-4H-pyrido[1,2-a]pyrimidinium inner salt]",≥ 80,≥ 80,≥ 80,≥ 80
,Cc1cccn2c(=O)c(-c3cc(C#CC4CC4)cc(C(C)C)c3)c([O-])[n+](Cc3cnc(Cl)s3)c12 [Compound 14],,≥ 80,≥ 80,
,COc1cc(C#CC(C)C)cc(-c2c([O-])[n+](Cc3cnc(Cl)s3)c3c(C)cccn3c2=O)c1 [Compound 18],,≥ 80,≥ 80,
,Cc1cccn2c(=O)c(-c3cc(F)cc(C#CC(C)C)c3)c([O-])[n+](Cc3cnc(Cl)s3)c12 [Compound 21],,≥ 80,≥ 80,≥ 80
,Cc1cccn2c(=O)c(-c3cc(C#CC(C)C)cc(C(F)(F)F)c3)c([O-])[n+](Cc3cnc(Cl)s3)c12 [Compound 26],,,,≥ 80
,Cc1cccn2c(=O)c(-c3cc(F)cc(C#CC4CC4)c3)c([O-])[n+](Cc3cnc(Cl)s3)c12 [Compound 29],,,≥ 80,
,Cc1cccn2c(=O)c(-c3cc(Cl)cc(C#CC4CC4)c3)c([O-])[n+](Cc3cnc(Cl)s3)c12 [Compound 35],,≥ 80,≥ 80,
,"Cc1cccn2c(=O)c(-c3cccc(C#CC4CC4)c3)c([O-])[n+](Cc3cnc(Cl)s3)c12 [Compound 37, 1-[(2-chloro-5-thiazolyl)methyl]-3-[3-(2-cyclopropylethynyl)phenyl]-2-hydroxy-9-methyl-4-oxo-4H-pyrido[1,2-a]pyrimidinium inner salt]",≥ 80,≥ 80,≥ 80,≥ 80
,"Cc1cccn2c(=O)c(-c3cccc(C#CC(C)C)c3)c([O-])[n+](Cc3cnc(Cl)s3)c12 [Compound 44, 1-[(2-chloro-5-thiazolyl)methyl]-2-hydroxy-9-methyl-3-[3-(3-methyl-1-butyn-1-yl)phenyl]-4-oxo-4H-pyrido[1,2-a]pyrimidinium inner salt]",≥ 80,≥ 80,≥ 80,≥ 80
,Cc1cccn2c(=O)c(-c3cc(Cl)cc(C#Cc4ccccc4)c3)c([O-])[n+](Cc3cnc(Cl)s3)c12 [Compound 47],,≥ 80,,≥ 80
,"CCOc1cc(C#CC2CC2)cc(-c2c([O-])[n+](Cc3cnc(Cl)s3)c3c(C)cccn3c2=O)c1 [Compound 51, 1-[(2-chloro-5-thiazolyl)methyl]-3-[3-(2-cyclopropylethynyl)-5-ethoxyphenyl]-2-hydroxy-9-methyl-4-oxo-4H-pyrido[1,2-a]pyrimidinium inner salt]",≥ 80,≥ 80,≥ 80,
,CC#Cc1cccc(-c2c([O-])[n+](Cc3cnc(Cl)s3)c3c(C)cccn3c2=O)c1 [Compound 61],≥ 80,≥ 80,,≥ 80
,Cc1ccc(-c2c([O-])[n+](Cc3cnc(Cl)s3)c3c(C)cccn3c2=O)cc1C#CC(C)C [Compound 86],≥ 80,≥ 80,≥ 80,≥ 80
